# ChEMBL document CHEMBL1681651, “A broad spectrum anticancer nucleoside with selective toxicity against human colon cells in vitro” (2011)
# Assays:
# Format in all cases: functional
# SNB-75 [1] = assay: Growth inhibition of human SNB75 cells assessed as cell growth at 1 uM after 48 hrs by SRB assay; settings: SNB-75, 48 h, read-out: Activity
# OVCAR-4 = assay: Growth inhibition of human OVCAR4 cells after 48 hrs by […] growth inhibition assay; settings: OVCAR-4, 48 h
# NCI-H522 = assay: Growth inhibition of human NCI-H522 cells assessed as cell growth at 10 uM after 48 hrs by SRB assay; settings: NCI-H522, 48 h, read-out: Activity
# CCRF-CEM = assay: Growth inhibition of human CCRF-CEM cells assessed as cell growth at 1 mM after 48 hrs by SRB assay; settings: read-out: Activity
# DU-145 = assay: Growth inhibition of human DU145 cells assessed as cell growth at 100 uM after 48 hrs by SRB assay; settings: DU-145, 48 h, read-out: Activity
# PC-3 = assay: Growth inhibition of human PC3 cells assessed as cell growth at 10 uM after 48 hrs by SRB assay; settings: PC-3, 48 h, read-out: Activity
# T47D = assay: Growth inhibition of human T47D cells assessed as cell growth at 1 uM after 48 hrs by SRB assay; settings: read-out: Activity
# OVCAR-3 = assay: Growth inhibition of human OVCAR3 cells assessed as cell growth at 1 uM after 48 hrs by SRB assay; settings: OVCAR-3, 48 h, read-out: Activity
# SN12C = assay: Growth inhibition of human SN12C cells assessed as cell growth at 1 uM after 48 hrs by SRB assay; settings: read-out: Activity
# HCT-116 = assay: Growth inhibition of human HCT116 cells assessed as cell growth at 1 mM after 48 hrs by SRB assay; settings: HCT-116, 48 h, read-out: Activity
# UACC-62 = assay: Growth inhibition of human UACC62 cells assessed as cell growth at 1 mM after 48 hrs by SRB assay; settings: UACC-62, 48 h, read-out: Activity
# 786-0 [2] = assay: Growth inhibition of human 786-0 cells assessed as cell growth at 10 uM after 48 hrs by SRB assay; settings: 786-0, 48 h, read-out: Activity
# TK-10 [3] = assay: Growth inhibition of human TK10 cells assessed as cell growth at 100 uM after 48 hrs by SRB assay; settings: TK-10, 48 h, read-out: Activity
# UO-31 = assay: Growth inhibition of human UO31 cells assessed as cell growth at 1 mM after 48 hrs by SRB assay; settings: UO-31, 48 h, read-out: Activity
# NCI-H322M = assay: Growth inhibition of human NCI-H322M cells assessed as cell growth at 1 mM after 48 hrs by SRB assay; settings: read-out: Activity
# MDA-MB-435 = assay: Growth inhibition of human MDA-MB-435 cells assessed as cell growth at 1 uM after 48 hrs by SRB assay; settings: MDA-MB-435, 48 h, read-out: Activity
# SNB-75 [4] = assay: Growth inhibition of human SNB75 cells assessed as cell growth at 1 mM after 48 hrs by SRB assay; settings: SNB-75, 48 h, read-out: Activity
# M14 = assay: Growth inhibition of human M14 cells assessed as cell growth at 100 uM after 48 hrs by SRB assay; settings: M14, 48 h, read-out: Activity
# SF-268 = assay: Growth inhibition of human SF268 cells after 48 hrs by […] growth inhibition assay; settings: SF-268, 48 h
# NCI-H23 = assay: Growth inhibition of human NCI-H23 cells assessed as cell growth at 0.1 uM after 48 hrs by SRB assay; settings: NCI-H23, 48 h, read-out: Activity
# NCI-H226 = assay: Growth inhibition of human NCI-H226 cells assessed as cell growth at 1 mM after 48 hrs by SRB assay; settings: NCI-H226, 48 h, read-out: Activity
# A498 = assay: Growth inhibition of human A498 cells assessed as cell growth at 0.1 uM after 48 hrs by SRB assay; settings: A498, 48 h, read-out: Activity
# TK-10 [5] = assay: Growth inhibition of human TK10 cells after 48 hrs by […] growth inhibition assay; settings: TK-10, 48 h
# SF-295 = assay: Growth inhibition of human SF295 cells assessed as cell growth at 1 mM after 48 hrs by SRB assay; settings: SF-295, 48 h, read-out: Activity
# NCI/ADR-RES = assay: Growth inhibition of human NCI/ADR-RES cells assessed as cell growth at 100 uM after 48 hrs by SRB assay; settings: read-out: Activity
# IGROV-1 = assay: Growth inhibition of human IGROV1 cells assessed as cell growth at 100 uM after 48 hrs by SRB assay; settings: IGROV-1, 48 h, read-out: Activity
# HCT-15 = assay: Growth inhibition of human HCT15 cells assessed as cell growth at 0.1 uM after 48 hrs by SRB assay; settings: HCT-15, 48 h, read-out: Activity
# SNB-19 = assay: Growth inhibition of human SNB19 cells assessed as cell growth at 1 mM after 48 hrs by SRB assay; settings: SNB-19, 48 h, read-out: Activity
# RXF 393 = assay: Growth inhibition of human RXF393 cells assessed as cell growth at 1 uM after 48 hrs by SRB assay; settings: RXF 393, 48 h, read-out: Activity
# [6] = Growth inhibition of human […] cells after 48 hrs by […] growth inhibition assay
# CAKI-1 = assay: Growth inhibition of human Caki1 cells assessed as cell growth at 100 uM after 48 hrs by SRB assay; settings: CAKI-1, 48 h, read-out: Activity
# 786-0 [7] = assay: Growth inhibition of human 786-0 cells assessed as cell growth at 0.1 uM after 48 hrs by SRB assay; settings: 786-0, 48 h, read-out: Activity
# TK-10 [8] = assay: Growth inhibition of human TK10 cells assessed as cell growth at 1 uM after 48 hrs by SRB assay; settings: TK-10, 48 h, read-out: Activity
# K562 = assay: Growth inhibition of human K562 cells assessed as cell growth at 10 uM after 48 hrs by SRB assay; settings: K562, 48 h, read-out: Activity
# SK-MEL-28 = assay: Growth inhibition of human SK-MEL-28 cells assessed as cell growth at 10 uM after 48 hrs by SRB assay; settings: SK-MEL-28, 48 h, read-out: Activity
# [9] = read-out: LC50 (the source's name)
# [10] = read-out: pLC50 (the source's name) (converted)
compound,measurement,setting,value
CNC(=O)NC[C@H]1O[C@@H](n2cnc3c(NC(=O)Nc4ccccc4)ncnc32)[C@H](O[Si](C)(C)C(C)(C)C)[C@@H]1O[Si](C)(C)C(C)(C)C,growth at 1 µM,SNB-75 [1],95%
same,GI50,OVCAR-4; read-out: GI50,3.44 µM
same,CC50,OVCAR-4; [9],> 100 µM
same,TGI,OVCAR-4; read-out: TGI,43.9 µM
same,GI50,OVCAR-4; read-out: pGI50 (converted),3.47 µM
same,CC50,OVCAR-4; [10],> 100 µM
same,TGI,OVCAR-4; read-out: pTGI,43.7 µM
same,growth at 10 µM,NCI-H522,90%
same,growth at 1000 µM,CCRF-CEM,4%
same,growth at 100 µM,DU-145,-35%
same,growth at 10 µM,PC-3,83%
same,growth at 1 µM,T47D,105%
same,growth at 1 µM,OVCAR-3,113%
same,growth at 1 µM,SN12C,100%
same,growth at 1000 µM,HCT-116,-100%
same,growth at 1000 µM,UACC-62,-39%
same,growth at 10 µM,786-0 [2],110%
same,growth at 100 µM,TK-10 [3],14%
same,growth at 1000 µM,UO-31,-21%
same,growth at 1000 µM,NCI-H322M,21%
same,growth at 1 µM,MDA-MB-435,102%
same,growth at 1000 µM,SNB-75 [4],-12%
same,growth at 100 µM,M14,19%
same,GI50,SF-268; read-out: GI50,3.58 µM
same,CC50,SF-268; [9],> 100 µM
same,TGI,SF-268; read-out: TGI,14 µM
same,GI50,SF-268; read-out: pGI50 (converted),3.55 µM
same,CC50,SF-268; [10],> 100 µM
same,TGI,SF-268; read-out: pTGI (converted),14.1 µM
same,growth at 0.1 µM,NCI-H23,100%
same,growth at 1000 µM,NCI-H226,-48%
same,growth at 0.1 µM,A498,92%
same,GI50,TK-10 [5]; read-out: GI50,4.29 µM
same,CC50,TK-10 [5]; [9],> 100 µM
same,TGI,TK-10 [5]; read-out: TGI,72.6 µM
same,GI50,TK-10 [5]; read-out: pGI50 (converted),4.27 µM
same,CC50,TK-10 [5]; [10],> 100 µM
same,TGI,TK-10 [5]; read-out: pTGI (converted),72.4 µM
same,growth at 1000 µM,SF-295,-7%
same,growth at 100 µM,NCI/ADR-RES,10%
same,growth at 100 µM,IGROV-1,-12%
same,growth at 0.1 µM,HCT-15,105%
same,growth at 1000 µM,SNB-19,7%
same,growth at 1 µM,RXF 393,73%
same,GI50,[6]; read-out: GI50,3270 nM
same,CC50,[6]; [9],> 100 µM
same,TGI,[6]; read-out: TGI,> 100 µM
same,GI50,[6]; read-out: pGI50 (converted),3310 nM
same,CC50,[6]; [10],> 100 µM
same,TGI,[6]; read-out: pTGI (converted),> 100 µM
same,growth at 100 µM,CAKI-1,-11%
same,growth at 0.1 µM,786-0 [7],108%
same,growth at 1 µM,TK-10 [8],113%
CCOC(=O)C[C@H]1[C@@H](O[Si](C)(C)C(C)(C)C)[C@H](n2cnc3c(NC(=O)Nc4ccccc4)ncnc32)O[C@@H]1CNC(=O)NC,growth at 1 µM,SNB-75 [1],90%
same,GI50,OVCAR-4; read-out: GI50,12.3 µM
same,CC50,OVCAR-4; [9],> 100 µM
same,TGI,OVCAR-4; read-out: TGI,> 100 µM
same,GI50,OVCAR-4; read-out: pGI50 (converted),12.3 µM
same,CC50,OVCAR-4; [10],> 100 µM
same,TGI,OVCAR-4; read-out: pTGI,> 100 µM
same,growth at 10 µM,NCI-H522,83%
same,growth at 10 µM,K562,89%
same,growth at 1000 µM,CCRF-CEM,-2%
same,growth at 100 µM,DU-145,24%
same,growth at 10 µM,PC-3,103%
same,growth at 1 µM,T47D,89%
same,growth at 1 µM,OVCAR-3,115%
same,growth at 1 µM,SN12C,101%
same,growth at 1000 µM,HCT-116,-88%
same,growth at 1000 µM,UACC-62,60%
same,growth at 10 µM,786-0 [2],86%
same,growth at 100 µM,TK-10 [3],59%
same,growth at 1000 µM,UO-31,-69%
same,growth at 1000 µM,NCI-H322M,72%
same,growth at 1 µM,MDA-MB-435,92%
same,growth at 1000 µM,SNB-75 [4],22%
same,growth at 100 µM,M14,4%
same,growth at 10 µM,SK-MEL-28,100%
same,GI50,SF-268; read-out: GI50,6.53 µM
same,CC50,SF-268; [9],92.5 µM
same,TGI,SF-268; read-out: TGI,27 µM
same,GI50,SF-268; read-out: pGI50 (converted),6.61 µM
same,CC50,SF-268; [10],93.3 µM
same,TGI,SF-268; read-out: pTGI (converted),26.9 µM
same,growth at 0.1 µM,NCI-H23,101%
same,growth at 1000 µM,NCI-H226,55%
same,growth at 0.1 µM,A498,95%
same,GI50,TK-10 [5]; read-out: GI50,12.4 µM
same,CC50,TK-10 [5]; [9],> 100 µM
same,TGI,TK-10 [5]; read-out: TGI,40.5 µM
same,GI50,TK-10 [5]; read-out: pGI50 (converted),12.3 µM
same,CC50,TK-10 [5]; [10],> 100 µM
same,TGI,TK-10 [5]; read-out: pTGI (converted),40.7 µM
same,growth at 1000 µM,SF-295,24%
same,growth at 100 µM,NCI/ADR-RES,80%
same,growth at 100 µM,IGROV-1,20%
same,growth at 0.1 µM,HCT-15,99%
same,growth at 1000 µM,SNB-19,12%
same,growth at 1 µM,RXF 393,97%
same,GI50,[6]; read-out: GI50,1090 nM
same,CC50,[6]; [9],59 µM
same,TGI,[6]; read-out: TGI,4.57 µM
same,GI50,[6]; read-out: pGI50 (converted),1100 nM
same,CC50,[6]; [10],58.9 µM
same,TGI,[6]; read-out: pTGI (converted),4.57 µM
same,growth at 100 µM,CAKI-1,88%
same,growth at 0.1 µM,786-0 [7],92%
same,growth at 1 µM,TK-10 [8],103%
